Measurements reported in ChEMBL document CHEMBL1201862, “PubChem BioAssay data set” (2004).
Activity calls are given as the source filed them.

Legend:
HEK293 [1] = test: NOD1 signaling inhibitors, primary screen, cell-based, luminescence, uHTS (AID 1578); format: functional; conditions: Homo sapiens
HEK293 [2] = test: cells; format: functional, cell-based; conditions: Homo sapiens
HEK293 [3] = test: cells; format: functional, cell-based; conditions: Homo sapiens; remark: listed apart in the source
[4] = molecular target: Nucleotide-binding oligomerization domain-containing protein 2 (Homo sapiens, UniProt Q9HC29); test: NOD2 signaling inhibitors, cell-based, luminescence, uHTS, HEK293 (AID 1566); format: functional
HEK293 [5] = test: NOD2 signaling inhibitors in MDP-stimulated cells, cell-based, uHTS, luminescence (AID 2001); format: functional; conditions: Homo sapiens
HEK293 [6] = test: cells; format: functional, cell-based; conditions: Homo sapiens; remark: listed apart in the source
[7] = tested on: Streptococcus sp. 'group A'; test: growth inhibition of control SK(-) GAS strain, dose response, counter-screen for streptokinase expression inhibitor project, luminescence, kanamycin, BacTiterGlo, confirmation (AID 1900); format: functional, organism-based
Streptokinase A = molecular target: T1, Streptokinase A (Streptococcus pyogenes serotype M1, UniProt P10520); test: S. pyogenes streptokinase expression inhibitors, potency, dose response, plasminogen activation absorbance, OD405 (AID 1914); format: functional, Streptococcus pyogenes M1 GAS;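 note: secreted streptokinase activity via plasminogen activation per viability signal from cell pellet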
T1 sequence (P10520 whole entry): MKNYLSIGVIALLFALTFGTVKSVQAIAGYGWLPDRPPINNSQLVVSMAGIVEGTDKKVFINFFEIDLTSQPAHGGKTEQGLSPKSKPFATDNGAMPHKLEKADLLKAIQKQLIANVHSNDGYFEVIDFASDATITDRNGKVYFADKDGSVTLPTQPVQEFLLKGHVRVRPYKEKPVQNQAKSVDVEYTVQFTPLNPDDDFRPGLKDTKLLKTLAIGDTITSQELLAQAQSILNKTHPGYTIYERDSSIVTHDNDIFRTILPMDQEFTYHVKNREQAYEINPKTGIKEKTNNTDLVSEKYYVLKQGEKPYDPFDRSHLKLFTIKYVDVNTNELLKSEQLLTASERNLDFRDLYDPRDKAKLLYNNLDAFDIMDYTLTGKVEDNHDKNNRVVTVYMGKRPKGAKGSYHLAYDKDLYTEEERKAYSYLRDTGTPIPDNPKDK

Streptococcus = test: Group A Streptococcus viability loss, dose response, counter-screen for streptokinase expression inhibitor project, luminescence, BacTiterGlo (AID 1915); format: functional, organism-based;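 note: potency for reduction of bacterial viability or growth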
Estrogen receptor = molecular target: T2, Estrogen receptor (Homo sapiens, UniProt P03372);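 note: potency for inhibiting coactivator peptide recruitment to the receptor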
T2 sequence (P03372 whole entry): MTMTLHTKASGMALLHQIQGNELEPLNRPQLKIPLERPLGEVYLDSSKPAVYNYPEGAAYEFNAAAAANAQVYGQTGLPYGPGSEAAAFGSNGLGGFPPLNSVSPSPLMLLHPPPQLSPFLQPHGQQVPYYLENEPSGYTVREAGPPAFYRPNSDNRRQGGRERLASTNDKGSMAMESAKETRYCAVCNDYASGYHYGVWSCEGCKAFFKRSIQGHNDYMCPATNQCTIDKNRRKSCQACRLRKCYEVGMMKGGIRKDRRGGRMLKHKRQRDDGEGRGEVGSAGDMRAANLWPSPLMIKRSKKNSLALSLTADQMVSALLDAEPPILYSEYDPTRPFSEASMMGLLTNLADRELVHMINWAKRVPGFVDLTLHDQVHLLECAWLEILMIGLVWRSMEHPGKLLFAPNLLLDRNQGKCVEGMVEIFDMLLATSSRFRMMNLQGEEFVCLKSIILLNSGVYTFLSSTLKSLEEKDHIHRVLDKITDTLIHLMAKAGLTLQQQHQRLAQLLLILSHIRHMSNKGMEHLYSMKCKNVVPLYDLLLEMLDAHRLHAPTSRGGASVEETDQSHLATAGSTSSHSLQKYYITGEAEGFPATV

[8] = molecular target: Induced myeloid leukemia cell differentiation protein Mcl-1 (Homo sapiens, UniProt Q07820); format: functional
[9] = molecular target: Eukaryotic translation initiation factor 4E (Mus musculus, UniProt P63073); test: eIF4E–eIF4G protein interaction inhibitors, dose response, biochemical, TR-FRET (AID 855); format: functional;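 note: potency for disrupting eIF4E binding to eIF4GI seen as loss of FRET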
[10] = molecular target: DNA (cytosine-5)-methyltransferase 1 (Homo sapiens, UniProt P26358); test: DNMT1 methyltransferase inhibitors, confirmation, biochemical, fluorescent molecular beacon (AID 602386); format: functional
Estrogen receptor beta [11] = molecular target: T3, Estrogen receptor beta (Homo sapiens, UniProt Q92731);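 note: recombinant ER-beta bound to coactivator SRC1 peptide in presence of estradiol agonist; inhibitors block coactivator peptide binding and lower the FRET signal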
Estrogen receptor beta [12] = molecular target: T3, Estrogen receptor beta; test: ERβ–SRC-3 coactivator interaction inhibitors, confirmation, orthogonal assay, biochemical, ELISA, streptavidin-HRP readout (AID 1060)
Troponin, cardiac muscle = Troponin, cardiac muscle (Homo sapiens, UniProt P19429+P45379+P63316); test: Fluorescence-based biochemical high throughput dose response assay for activators of the calcium sensitivity of cardiac Regulated Thin Filaments (RTF). [Related pubchem assays (depositor defined):AID493008, AID493018, AID504382, AID504383]; format: protein-complex assay

O=C(Nc1cccc(Br)c1)c1ccc(Cl)c(S(=O)(=O)N2CCOCC2)c1
EC50 (HEK293 [1]): 10.3 µM (active) | IC50 (HEK293 [2]): 2.87 µM (active) | IC50 (HEK293 [3]): 6.44 µM (active) | EC50 [4]: > 20 µM (inactive) | IC50 (HEK293 [5]): 3.44 µM (active) | IC50 (HEK293 [6]): > 20 µM (inactive)

CCN(CC)S(=O)(=O)c1cccc(C(=O)Nc2nc3cc4c(cc3s2)OCCO4)c1
EC50 (HEK293 [1]): 3.29 µM (active) | EC50 [7]: 1.08 µM (active) | IC50 (HEK293 [2]): 4.3 µM (active) | EC50 (Streptokinase A): > 150 µM (not active) | IC50 (HEK293 [3]): 9.78 µM (active) | EC50 [4]: 4.53 µM (active) | IC50 (HEK293 [5]): 3.47 µM (active) | IC50 (HEK293 [6]): > 20 µM (inactive) | EC50 (Streptococcus): 7.62 µM (active)

Cc1ccc(NC(=O)CN2C(=O)S/C(=C/c3ccc(-c4cc(C(=O)O)ccc4C)o3)C2=O)cc1C
EC50 [7]: 2.31 µM (active) | IC50 (Estrogen receptor): 18.2 µM (active) | IC50 [8]: 2.05 µM (active) | EC50 (Streptococcus): 6.89 µM (active) | IC50 [9]: 14.4 µM (active) | IC50 [10]: 11.3 µM (active)

C=CCn1c(SCC(=O)NC(=O)NCc2ccco2)nc2sc(CC)cc2c1=O
IC50 (Estrogen receptor): 10.1 µM (active) | IC50 (Estrogen receptor beta [11]): 13.6 µM (active) | IC50 (Estrogen receptor beta [12]): 0.0317 µM (not active)

C[C@@H](C(=O)N1CCNCC1)n1cc(CCCN=C(N)N)nn1
EC50 (Troponin, cardiac muscle): > 71.5 µM (inactive)
